The subject of data set [1] is Xenopus eggs. The experiment in a line: Enucleation of Xenopus eggs with psoralen and long-wave UV light, then fertilization. Conditions: for Chromosome Number (Mean ± SD): embryos from eggs treated with psoralen + long-wave UV before fertilization, diploid control 36. It is filed as cell-based.
Data set [2] has as its system HeLa cells. Nature of the data set: Effect of psoralen+UV treatment on growth of HeLa cells.
For data set [3], the system named is Mouse sperm. Conditions: AMT+UV-treated sperm. The procedure: (§1) Sperm Enucleation. A small piece of fresh Xenopus testis was macerated with forceps, resuspended in 1×MMR containing 1-50 μM AMT, then filtered through a […] cell strainer (Falcon). The sperm suspension was spread onto a Petri dish then irradiated as described above and used immediately to fertilize fresh eggs. Mouse epididymal sperm were isolated in HTF medium (Quinn, 2000) and not filtered before irradiation.
(§2) Eggs from super-ovulated mice were irradiated for 30 seconds with a handheld 4W UV lamp in the presence of 4-6 μM AMT, then parthenogenetically activated with strontium chloride and cultured in vitro for four days. […] In mouse embryos, however, checkpoints are active during the early cleavage divisions (Liu et al., 2000b; Takai et al., 2000).

In data set [4] the test system is Mouse J2 3T3 fibroblasts. Particulars: 5 μM AMT and UV light 2 minutes. The procedure:
(§3) Feeder Cell Enucleation. […] Cells were irradiated from above for 30-60 seconds with a 4 W UVGL-25 Mineralite (UVP) using the long-wave setting, holding the lamp as close as possible to the brim of the culture dish with the lid removed. After irradiation cells were washed with PBS. H7/WA07 hESCs (National Stem Cell Bank) were plated on primary MEFs 24 hours later. These MEFs were between passages 2 and 5. For keratinocytes precursor cell culture, the MEFS were trypsinized immediately after treatment and plated with CIN612 cells.
The human keratinocyte precursor cell line CIN612 is widely used in studies of human papillomavirus (HPV) (Ozbun, 2002). CIN612 cells harbor episomal copies of HPV31b, a subtype that causes cervical cancer. The cells are typically grown on a feeder layer of mouse fibroblasts. Mouse J2 3T3 fibroblasts were treated with 5 μM AMT and UV light for 2 minutes, then trypsinized and plated with CIN612 cells.

In data set [5] the test system is primary MEFs. The procedure: as §3
Human embryonic stem cells (hESCs) require a feeder layer of mouse embryonic fibroblasts (MEFs) to grow in culture (Thomson et al., 1998). […] The ability of MEFs to support hESC growth declines with time (VIIIa-Diaz et al., 2009).

The subject of data set [6] is Mouse eggs. Particulars: cultured four days. The procedure: as §2
For data set [7], the system named is Xenopus sperm. As for the experimental part: as §1
Karyotype Analysis. Karyotype analysis was performed using a modified protocol (http:// followed “by faculty.virginia.edu/xtropicalis/KaryotypeXtropicalis.htm”). […] tailbud embryos were incubated in 0.1×MMR containing 10 μM nocodazole for 1-3 hours. The tailbud was bluntly dissected off with sharp needles, incubated in 60% acetic acid for 5 minutes, and squashed onto a Superfrost Plus microscope slide (V WR Scientific) under a coverslip and a lead brick. After 5 minutes, the slide was quick-frozen on a cake of dry ice, the coverslip was prized off with a razor blade, and the squashed tissue was stained with 0.1 μg/ml 4′,6-diamidino-2-phenylindole (DAPI). At least three high quality spreads were counted before assigning a karyotype.

[8] abbreviates: 5 μM MOP, long wave UV 1 minute, cultured three days.
Where [9] appears, read: pigmented male sperm treated with AMT and UV, eggs from albino female.

“And” between values parts separate entries of the source, which are not always exact repeats. Equal entries are not always repeated. Where only a bound is given, the exact number is not on record here.

In the case of `COc1c2occc2cc2ccc(=O)oc12` [MOP, 8-methoxypsoralen], the “Chromosome Number (Mean ± SD)” value in data set [1] (karyotype analysis) stood at 18.0 ± 0.0. Further, in data set [2] (setting [8]), the Cell viability was 80-100% and the HeLa cell growth entry was “effectively arrested HeLa cell growth”. For the same compound, in data set [2] (MOP without UV), the “Chk1 phosphorylation, MOP without UV exposure” value is recorded as “little or no Chk1 phosphorylation” and the “Growth of cells incubated in MOP without UV exposure” value is on record as “grew normally”. Also, in data set [2] (MOP+UV-arrested cells, immunoblotting), the “S345-phosphorylated Chk1” value is “high levels”. In data set [2] (MOP+UV-treated cells), the “Cell cycle distribution (flow cytometry)” value was “arrested in S and G2/M phases of the cell cycle”. Moreover, the Proliferation in culture entry in data set [2] (MOP+UV-treated, untreated doubling time close to 24 hours) is on record as “did not proliferate”.

Take `Cc1oc2c(C)c3oc(=O)cc(C)c3cc2c1CN` [AMT, 4′-aminomethyl-4, 5′, 8-trimethylpsoralen]: the “Average efficiency of enucleation” value in data set [1] (20 different clutches of eggs from different mothers) was determined as 87±11%. In addition, the “Embryo development, AMT-only treated eggs” value in data set [1] (AMT without UV) is reported as “normal diploid embryos”. Also, the “DNA content of somatic cells versus cells from untreated eggs” value in data set [1] (AMT+UV-treated eggs, primary cultures from pools of 20 tadpoles, flow cytometry) is listed as “exactly half”. For the same compound, the “Rates of fertilization and development into haploid tadpoles” value in data set [1] (after psoralen+UV treatment of eggs) is 80-100%. The Appearance of tadpoles entry was “typical haploid appearance” in data set [1] (eggs in 50 μM AMT 5 min, irradiated 5 min, 100 W UV 300-400 nm, then fertilized) and “typical haploid appearance” in data set [7] (setting [9]). In addition, the “Outcome with shorter irradiation or lower concentrations” value in data set [1] (eggs irradiated for shorter periods or with lower concentrations of AMT) is listed as “abnormal embryos”. In addition, the “Haploid embryos expressing GFP” value in data set [1] (eggs of CMV-GFP(+) female treated with AMT and UV, fertilized with GFP(−) sperm, untreated 63%) was “virtually none”. The “Chromosome Number (Mean ± SD)” value in data set [1] (karyotype analysis) is 18 and 18.0 ± 0.0; in data set [7] (embryos from eggs fertilized with AMT + UV-treated sperm, karyotype analysis) it was 18 and 18.0 ± 0.0. In addition, the “Concentration providing ideal enucleation conditions” value in data set [1] (irradiation of eggs for 2-5 minutes) is 25 to 50 µM. The “Chromosome number of most surviving abnormal embryos” value in data set [1] (shorter irradiation or lower AMT concentrations, karyotype analysis) is 32-34. The “Cleavage of fertilized zygotes” value in data set [3] (20-40% with untreated sperm reached blastocyst) is recorded as “rarely cleaved even once”. In addition, in data set [3] (two pronuclei), the “Fertilization of mouse eggs in vitro by treated sperm” value was “successfully fertilized mouse eggs in vitro”. In data set [4], the “Growth rate of CIN612 cells on psoralen-treated feeders” value is listed as “the same as on mitomycin-C treated feeders”. In addition, in data set [4] (3-7 days in culture), the “CIN612 colonies compared with mitomycin C-treated feeders” value was “indistinguishable from those grown on mitomycin C-treated feeder cells”. Besides, the “Comparison of colonies with those on gamma-irradiated MEFs” value in data set [5] (5 μM AMT, long-wave UV 30 seconds) is “indistinguishable from those grown on gamma-irradiated MEFs”. The “Appearance of hESC colonies on treated MEFs” value in data set [5] (5 μM AMT, long-wave UV 30 seconds, H7/WA07 hESCs after 5 days) was “healthy-appearing hESC colonies with smooth rounded borders”. The “Time after treatment within which plating maintains hESCs undifferentiated” value in data set [5] (AMT+UV-treated MEFs, noticeable decrease after 8 days) is ≤ 6 days. Moreover, in data set [5] (on AMT+UV-treated MEFs), the “Oct3/4 expression of hESCs” value is “normal amounts”. Moreover, in data set [6] (4-6 μM AMT, 30 seconds handheld 4W UV lamp), the “Development of parthenogenetically activated eggs” value is listed as “arrested development at the 1-2 cell stage”. Also, the “Development of eggs treated with AMT only” value in data set [6] (AMT without UV) is reported as “formed complete blastocysts”. Further, in data set [7] (both sperm and egg AMT+UV-treated), the “Embryo outcome when both sperm and egg were treated” value is given as “underwent several irregular cleavage divisions before dying during the blastula stage”. The Pigmentation of tadpoles entry in data set [7] (setting [9]) was “all were albino”. Further, in data set [7] (sperm treated with AMT and UV light), the “Effect on efficiency of fertilization” value is listed as “no effect”. Besides, the Efficiency of enucleation in data set [7] (sperm, AMT + UV) is 95±3%. In addition, the “Psoralen concentration sufficient to completely destroy the nucleus” value in data set [7] (sperm, with UV irradiation) was 1 µM. For the same compound, in data set [7] (unless fertilization performed in a darkroom under a safelight), the “Embryo outcome, AMT without UV exposure” value was “sometimes gave rise to abnormal embryos”.

The values above are taken from US20120052544A1, “E[…] CELLS WITH PSORALENS” (priority 2010, published 2012).
